From patent US20240018122A1, “PYRIDAZINYL AMINO DERIVATIVES AS ALK5 INHIBITORS” (CHIESI FARMACEUTICI S.P.A., priority 2020, published 2024)
Read-outs that look alike come from different tables or passages of the source.

Molecular target: human ALK5 (Homo sapiens (Human), UniProt P36897)
Assay: ADP-GLO Kinases assay, inhibitory activity on ALK5
Format: biochemical
[1] = purified recombinant human ALK5 2.6 nM, TGFβ1 peptide substrate, 25° C, 150 min incubation, ADP-Glo detection, read-out: ALK5 IC50

Chain of human ALK5 (P36897 80-503 limits assumed): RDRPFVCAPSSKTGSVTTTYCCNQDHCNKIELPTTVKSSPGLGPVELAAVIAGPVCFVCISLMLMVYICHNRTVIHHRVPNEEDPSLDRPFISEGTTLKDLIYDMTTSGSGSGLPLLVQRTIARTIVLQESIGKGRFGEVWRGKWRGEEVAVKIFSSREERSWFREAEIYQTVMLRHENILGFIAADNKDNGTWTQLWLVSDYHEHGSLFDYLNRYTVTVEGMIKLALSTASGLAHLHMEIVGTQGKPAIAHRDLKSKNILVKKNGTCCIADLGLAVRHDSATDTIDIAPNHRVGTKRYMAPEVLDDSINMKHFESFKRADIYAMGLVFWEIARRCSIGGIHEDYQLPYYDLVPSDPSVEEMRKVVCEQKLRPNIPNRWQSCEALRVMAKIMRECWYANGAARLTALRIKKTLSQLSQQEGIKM

Row | Compound | IC50 [1] [nM] | IC50 [nM]
1 | CN1CCC(OC(=O)c2ccc3c(Nc4cnnc(-c5cc(Cl)ccc5F)c4)ccnc3c2)CC1 [Example 20, 1-Methylpiperidin-4-Yl 4-{[6-(5-Chloro-2-Fluorophenyl)Pyridazin-4-Yl]Amino}Quinoline-7-Carboxylate] | < 1 | –
2 | O=C(Oc1ccc2c(Nc3cnnc(-c4cc(Cl)ccc4F)c3)ccnc2c1)N1CCN(CCO)CC1 [Example 57, 4-{[6-(5-Chloro-2-Fluorophenyl)Pyridazin-4-Yl]Amino}Quinolin-7-Yl 4-(2-Hydroxyethyl)Piperazine-1-Carboxylate] | – | 1 to 5
3 | COC(=O)C1CN(CCC(=O)Nc2cc(Nc3cc(-c4cc(Cl)ccc4F)nnc3C)ccn2)CCN1 (centres unmarked) [Example 91, Methyl 4-{2-[(4-{[6-(5-Chloro-2-Fluorophenyl)-3-Methylpyridazin-4-Yl]Amino}Pyridin-2-Yl)Carbamoyl]Ethyl}Piperazine-2-Carboxylate] | < 1 | –
4 | Cc1nnc(-c2cc(Cl)ccc2F)cc1Nc1ccnc(NC(=O)CCN2CCN(CCN)CC2)c1 [Example 76, 3-[4-(2-Aminoethyl)Piperazin-1-Yl]-N-(4-{[6-(5-Chloro-2-Fluorophenyl)-3-Methylpyridazin-4-Yl]Amino}Pyridin-2-Yl)Propanamide] | < 1 | –
5 | Cc1nnc(-c2cc(Cl)ccc2F)cc1Nc1ccnc2cc(OC(=O)N3C[C@H]4C[C@@H]3CN4C)ccc12 [Example 159, 4-{[6-(5-chloro-2-fluorophenyl)-3-methylpyridazin-4-yl]amino}quinolin-7-yl (1R,4R)-5-methyl-2,5-diazabicyclo[2.2.1]heptane-2-carboxylate] | – | < 1

More lines, main results first:

Row | IC50 [1] [nM] | Compound | IC50 [nM]
6 | < 1 | CN1CCN(CCCOc2ccc3c(Nc4cnnc(-c5cc(Cl)ccc5F)c4)ccnc3c2)CC1 [Example 29, N-[6-(5-Chloro-2-Fluorophenyl)Pyridazin-4-Yl]-7-[3-(4-Methylpiperazin-1-Yl)Propoxy]Quinolin-4-Amine] | –
7 | < 1 | 1-(4-{[6-(2-Chloro-5-Fluorophenyl)-3-Methylpyridazin-4-Yl]Amino}Pyridin-2-Yl)-3-[(1-Methylpiperidin-4-Yl)Methyl]Urea [Example 142] | –
8 | < 1 | Cc1nnc(-c2cc(Cl)ccc2F)cc1Nc1ccnc(NC(=O)CCCN2CCCNCC2)c1 [Example 158, N-(4-{[6-(5-Chloro-2-Fluorophenyl)-3-Methylpyridazin-4-Yl]Amino}Pyridin-2-Yl)-4-(1,4-Diazepan-1-Yl)Butanamide] | –
